From patent publication US7074925B1, “N-substituted derivatives of 5-oxyiminobarbituric acid” (priority 1998, dated 2006)
Converted amounts (≈) assume the structure as drawn.

Legend:
[1] = Determination of maximal tolerable dose; type: in vivo; details: oral administration, mice, observed 72 hours; 300 was the maximally utilized one
Method: Tested substance was introduced perorally (in dose of 300 mg/kg) through a gastric tube or intraperitoneally (in dose of 100 mg/kg) to no-breed white mice with mass 18-20 g (each tested group consisted of 3 males and 3 females). Then the mouse state was observed during 72 hours. Absence of symptoms characteristic of toxic effects, or absence of animal death during the given time allows to make a conclusion that the toxicity of the test substance is low. If acute toxicity effects are observed, the dose is reduced to find maximal tolerable dose.

[2] = Analgesic activity, tail withdrawal from radiant heat; type: in vivo, mice
Method: The time needed to draw back a tail placed under a directed source of radiant heat was estimated in a group of 3 mice. Prolongation of the response time by more than 50% after intraperitoneal dosing a substance (30 mg/kg) indicated analgesic activity. Morphine sulfate (2 mg/kg) was utilized as a reference agent.

[3] = Antioxidant action, riboflavine chemiluminescence; type: biochemical; details: solvent water, phosphate buffer pH 9.1
From the text: To assess a general antioxidant activity the method of riboflavine chemiluminescence was used. The test substance was introduced into a system consisted of phosphate buffer (pH 9.1), solution of riboflavine, and solution of bivalent iron sulfate. Chemiluminescence was initiated by 0.1% solution of hydrogen peroxide and registered by means of luminometer. […] Ascorbic acid was used as a reference agent.

[4] = tested on: Mycobacterium smegmatis ATCC607; experiment: Antimicrobial action by serial dilution (MIC), M. smegmatis; type: cell-based; details: for MIC: Mycolicibacterium smegmatis, ATCC607, M. smegmatis ATCC 607, medium N-1, 72-hour cultivation at 37° C.
[5] = tested on: Mycobacterium tuberculosis H37RV; experiment: Antimicrobial action by serial dilution (MIC), M. tuberculosis; type: cell-based; details: Soton medium with 10% horse serum, 72-hour cultivation at 37° C.; for MIC: Mycobacterium tuberculosis
[6] = tested on: Human's platelet aggregation; experiment: Antiaggregational properties, ADP-induced platelet aggregation; type: cell-based; details: 100 μg/ml, ADP […], platelet-enriched human plasma
From the text: Human's platelet aggregation was investigated in plasma of healthy 50±3 years donors that was enriched by thrombocytes, by means of aggregometer FRM-1. […] Magnitude of a maximum non-reversible platelet aggregation in the control samples (solvent) was adopted as 100%, and that in tested samples was counted as the percentage compared to the control.

[7] = tested on: Herpes virus of the type I (HSV-I/Leningrad/248/88); experiment: Effect on Herpes virus, cytopathogenic action on Vero cells; type: cell-based, Herpes Simplex virus; details: compound 100 μg/ml
Method: An antiviral activity was determined with respect to Herpes virus of the type I (HSV-I/Leningrad/248/88) by means of commonly accepted method. Viruses were grown on a continuous culture of Vero cells that have been received from the Bank of Cell Cultures of the Institute of Cytology of the Russian Academy of Science.
A virus in a final concentration of […] and the claimed compounds dissolved in DMSO in final concentrations of 100, 10 and 1 mg/l were added to cells that were grown on the RPMI-1640 medium with 10% fetal calf serum and placed into wells of the 96-well plate. 5 separate wells were used for each of tested concentrations of an agent. The plate was incubated during 60 minutes at 38° C. in a CO2-incubator. After the incubation, the virus was removed and then a fresh medium containing claimed compounds in used concentrations was again introduced.
Results were evaluated basing on presence of cytopathogenic action on the cells after 36 hours of incubation at 38° C. in the CO2-incubator.
The next controls were used in the experiment: • 1. Control of cell culture (capability to grow properly) • 2. Control of the virus (evaluation of capability for reproduction) • 3. Control of an antiviral activity of an antiviral drug Acyclovir • 4. Control of compounds (toxicity of compounds) • 5. Control of a solvent (DMSO) for toxicity.
To estimate a cytopathic action of the virus, a quantity of the unchanged cells was calculated in 100 visual fields formed by a special net of an eyepiece of the inverted microscope.

[8] = Hepatoprotective activity, CCl4 liver damage (AlAT); type: in vivo, rats; details: for AlAT: 20 mg/kg perorally 30 minutes before and 7 hours after CCl4, 24 hours, CCl4 control 0.83 ± 0.21, intact 0.27 ± 0.04; for % of reducing AlAT: 20 mg/kg perorally, relative to CCl4 control
Method: CCl4 dissolved in 50% olive oil (1 ml/kg) was subcutaneously administrated to rats. Test substances were administrated perorally in a dose of 20 mg/kg 30 minutes before and 7 hours after the CCL4 administration. The activity of alanine-aminotranspherase (AlAT), which is a marker enzyme of liver parenchyma damage, was assessed twenty-four hours later. Reducing of enzyme amount by more than 30% relative to the control group was considered as evidence of hepatoprotective properties of the substance.
Silymarin in a dose of 100 mg/kg was used as a reference agent.

[9] = Psychodepressive activity, behavioral score; type: in vivo, mice; details: per oral 300 mg/kg, one hour after dosing; total 60, less than 40 significant
Method: Each parameter scores 2 points for an each mouse that had unchanged behavior. The total point sum was 60 (2×10×3 mice). Reducing score to less than 40 one hour after dosing with a substance per oral (300 mg/kg) denoted significant behavioral depression. Haloperidol was utilized as a reference agent.

[10] = Hypoglycemic activity after glucose load; type: in vivo, mice; details: 100 mg/kg perorally, glucose 1000 mg/kg s.c.
Method: Test substance (100 mg/kg) was perorally administrated to fasted mice, and, immediately after that, solution of glucose (1000 mg/kg) was administrated subcutaneously. Glucose content in blood was determined in a hour by the orthotoluidine method. Reducing of glucose level by more than 20% relative to control animals indicated hypoglycemic properties. Glibenclamide (I mg/kg) was utilized as a reference agent.

[11] = Antiulcerous action, water immersion stress with immobilization; type: in vivo, rats; details: 20 mg/kg perorally
Method: Antiulcerous activity of substances was tested on a model of experimental water immersion stress with immobilization. […] After that, gastric mucous membrane was investigated, number and sizes of ulcers were counted, ulceration index was determined (an average sum of ulcer lengths per one animal in a group).

[12] = tested on: primary culture of human lymphocytes (IFN-α production); experiment: Interferon-inducing activity in primary culture of human lymphocytes; type: cell-based
Method: Interferon synthesis induction caused by the claimed compounds was conducted on a primary culture of human lymphocytes (it is these cells in a human organism that are the main producers of interferons). To obtain lymphocyte culture, fresh blood (within 12 hours after sampling) from healthy donors (not of group II) was used. To separate lymphocytes, heparinized blood obtained from healthy donor was centrifuged in a density gradient of ficoll-verografin of […] in order to extract a fraction of immunocompetent cells. This fraction was selected and diluted with the nutrient medium RPMI-1640, containing 5% of fetal calf serum, 0.3 mg/ml of L-glutamin, 100 un/ml of penicillin, and […] of streptomycin. The concentration of lymphocytes was considered after dying them with methylene blue and calculation of cell number in Goryaev chamber. Initial solutions of the claimed compounds were diluted with the nutrient medium RPMI-1640 so that the final concentrations of the compounds, which were obtained after introduction of lymphocyte suspension, constituted the raw: 100 μg/ml, 10 μg/ml, 1 μg/ml. The final concentration of lymphocytes in the induction mixture was 3×10^6 cell/ml.
In parallels to the test samples the following controls were done: • 1). Control of spontaneous production of interferons (IFN) by lymphocytes. • 2). […] Control of spontaneous production of interferons in presence of DMSO taken in an amount corresponding to the test samples.
Control and test samples were incubated for 24 hours at the temperature of 37° C. After incubation, the samples were centrifuged at 2,000 G to deposit cell elements, and IFN-containing supernatant was separate out of samples; then the supernatant was analyzed for the quantitative content of IFN. Cell deposition was resuspended in the previous volume of nutrient medium, coloured with vital dye trypan blue, and cell number was counted in the Goryaev chamber (as described above) to determine cytotoxic action of the compounds. The quantitative determination of content of IFN in control and test samples was conducted using the immunoenzyme test system Pro Con IF2 Plus, that is intended for determination of IFN-α, which is produced by TOO “Protein contour”. The solid-phase immunoenzyme method, utilizing horse radish peroxidase as an indicator enzyme, was used to determine the quantity of interferon in the samples. Activity of the bonded peroxidase was measured using an automatic photometer for microplates with a microprocessor at the wavelength of 450 nm.
Based on the obtained results, a calibrating curve was formed, which allows to obtain data expressed in international units (IU) of activity, using the microprocessor of the automatic photometer. The results of the analysis are expressed in IU of activity of IFN per ml in the given induction system, which contains 3×10^4 lymphocyte/ml. Each test and control point was investigated in four parallels.
Controls of immunoenzyme reaction: • 1. Control of DMSO with a nutrient medium. • 2. Control of system components (according to an instruction).
The obtained data were undergone a statistical analysis using t-criterion, and calculation of the confident interval of probability at p=0.05 was carried out. Coincidence of results in the parallel tests was analyzed.

O=C1NC(=O)N(c2cccc(F)c2)C(=O)C1=NO [XXVI]
Maximal tolerable dose, concentration of test substances [1]: 300 mg/kg

CN1CC[C@]23c4c5ccc(O)c4O[C@H]2[C@@H](O)C=C[C@H]3[C@H]1C5.O=S(=O)(O)O [Morphine, Morphine sulfate, reference compound]
Latent period of response, before dosing ([2]; before morphine sulfate 2 mg/kg): 8.3
Latent period of response, 30 minutes after dosing ([2]; morphine sulfate 2 mg/kg): 14.6

O=C1O[C@H]([C@@H](O)CO)C(O)=C1O [Ascorbic acid, reference compound]
IC50, suppressing chemiluminescence by 50% [3]: 2.39 µg/mL (≈ 13.6 µM)

CC1COc2c(N3CCN(C)CC3)c(F)cc3c(=O)c(C(=O)O)cn1c23 (stereo not shown) [Ofloxacin]
MIC [4]: 0.5 µg/mL (≈ 1.38 µM)
MIC [5]: 0.5 µg/mL (≈ 1.38 µM)

O=C1NC(=O)N(c2ccc(Br)cc2)C(=O)C1=NO [XXIX]
% of inhibition of platelet aggregation [6]: 16.4 ± 3.1%
Quantity of the unchanged cells (number of cells in 100 visual fields) ([7]; Vero cells, 36 hours, cell control 10000): 3000
percentage of protection of cells from virus ([7]; compared to the control of cell culture): (30%)
AlAT [8]: 0.40 ± 0.04 mmol/L/h
% of reducing AlAT [8]: −52%
Point number (behavioral depression) [9]: 32
Maximal tolerable dose, concentration of test substances [1]: 300 mg/kg

NNC(=O)c1ccncc1 [Isoniazid]
MIC [4]: 1.5 µg/mL (≈ 10.9 µM)
MIC [5]: 0.1 µg/mL (≈ 0.729 µM)

CC[C@@H](CO)NCCN[C@@H](CC)CO [Ethambutol]
MIC [4]: 5 µg/mL (≈ 24.5 µM)
MIC [5]: 5 µg/mL (≈ 24.5 µM)

O=C(CCCN1CCC(O)(c2ccc(Cl)cc2)CC1)c1ccc(F)cc1 [Haloperidol, reference compound]
Point number (behavioral depression) [9]: 27

O=C1NC(=O)N(C2CCCCC2)C(=O)C1=NO [VIII]
% of inhibition of platelet aggregation [6]: 68.9 ± 5.3%
AlAT [8]: 0.48 ± 0.19 mmol/L/h
% of reducing AlAT [8]: −42%
% change of glucose relative to glucose control [10]: −18%
Glucose in blood ([10]; after one hour, glucose control 8.26 ± 0.50): 6.77 ± 0.61 mmol/L
% of animals with ulcers ([11]; rats, 4 hours stress, control 100): 100%
% of reducing number of ulcers ([11]; versus control): −64%
% of reducing ulceration index ([11]; versus control): −35%
Number of lesions ([11]; control 8.3 ± 2.5): 3.0 ± 1.3
ulceration index ([11]; control 10.5 ± 5.7): 6.8 ± 4.4

[H]/N=C(/N)N[C@H]1[C@H](O)[C@@H](O)[C@H](O[C@@H]2O[C@@H](C)[C@](O)(C=O)[C@H]2O[C@@H]2O[C@@H](CO)[C@H](O)[C@@H](O)[C@@H]2NC)[C@@H](N/C(N)=N\[H])[C@@H]1O [Streptomycin]
MIC [4]: 0.15 µg/mL (≈ 0.258 µM)
MIC [5]: 0.2 µg/mL (≈ 0.344 µM)

CO[C@H]1/C=C/O[C@@]2(C)Oc3c(C)c(O)c4c(O)c(cc(O)c4c3C2=O)NC(=O)/C(C)=C\C=C\[C@H](C)[C@H](O)[C@@H](C)[C@@H](O)[C@@H](C)[C@H](OC(C)=O)[C@@H]1C [Rifamycin]
MIC [4]: 0.25 µg/mL (≈ 0.358 µM)
MIC [5]: 0.05 µg/mL (≈ 0.0717 µM)

CN1C(=O)C(=NO)C(=O)N(C)C1=S [XL]
MIC, M. smegmatis [4]: 3.1 µg/mL (≈ 15.4 µM)
Content of IFN in induction mixture after 24-hour incubation ([12]; substance 1 mg/l): 5.1 ± 1.0 IU/3 × 10^4 lymph./ml
Content of IFN in induction mixture after 24-hour incubation ([12]; substance 10 mg/l): 11.3 ± 1.5 IU/3 × 10^4 lymph./ml
Content of IFN in induction mixture after 24-hour incubation ([12]; substance 100 mg/l): 22.8 ± 1.0 IU/3 × 10^4 lymph./ml
MIC, M. tuberculosis [5]: 12.5 µg/mL (≈ 62.1 µM)
